Columns and labels:
[1] = target: Glycogen synthase kinase-3 alpha (Homo sapiens, UniProt P49840); test: Inhibition of N-terminal GST-tagged full-length recombinant human GSK-3alpha extracted from baculovirus infected Sf9 cells using biotinylated-phosphorylated glycogen synthase incubated for 100 mins in presence of ATP by TR-FRET assay
[2] = target: Glycogen synthase kinase-3 beta (Homo sapiens, UniProt P49841); test: Inhibition of N-terminal GST-tagged full-length recombinant human GSK-3beta extracted from baculovirus infected Sf9 cells using biotinylated-phosphorylated glycogen synthase incubated for 100 mins in presence of ATP by TR-FRET assay
Sequence of Glycogen synthase kinase-3 beta (P49841 whole entry): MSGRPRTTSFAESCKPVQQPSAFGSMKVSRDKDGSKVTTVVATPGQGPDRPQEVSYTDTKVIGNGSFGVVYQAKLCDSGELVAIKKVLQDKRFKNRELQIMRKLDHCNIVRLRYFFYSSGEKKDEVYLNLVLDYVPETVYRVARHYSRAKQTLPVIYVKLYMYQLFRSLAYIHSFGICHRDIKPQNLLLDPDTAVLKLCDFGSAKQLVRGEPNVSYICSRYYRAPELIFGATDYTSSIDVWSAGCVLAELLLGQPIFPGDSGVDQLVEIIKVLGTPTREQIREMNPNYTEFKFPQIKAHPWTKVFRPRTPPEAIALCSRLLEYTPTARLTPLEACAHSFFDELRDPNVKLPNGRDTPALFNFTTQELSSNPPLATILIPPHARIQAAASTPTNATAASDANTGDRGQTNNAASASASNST

Sequence of Glycogen synthase kinase-3 alpha (P49840 whole entry): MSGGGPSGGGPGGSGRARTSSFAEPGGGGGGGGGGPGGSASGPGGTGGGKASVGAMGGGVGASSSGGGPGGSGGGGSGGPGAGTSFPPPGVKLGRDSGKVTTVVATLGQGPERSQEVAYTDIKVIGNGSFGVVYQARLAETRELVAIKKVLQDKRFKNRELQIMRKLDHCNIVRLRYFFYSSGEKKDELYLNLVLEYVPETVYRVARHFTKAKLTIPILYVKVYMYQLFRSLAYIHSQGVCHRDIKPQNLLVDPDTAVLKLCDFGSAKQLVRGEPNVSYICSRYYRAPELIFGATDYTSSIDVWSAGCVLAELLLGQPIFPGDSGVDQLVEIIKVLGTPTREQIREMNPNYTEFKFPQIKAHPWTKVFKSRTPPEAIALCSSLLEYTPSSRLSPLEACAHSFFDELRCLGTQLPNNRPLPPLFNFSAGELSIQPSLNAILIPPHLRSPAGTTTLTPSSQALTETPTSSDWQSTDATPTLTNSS

| IC50 [1] [nM] | IC50 [2] [nM] | Structure (SMILES) |
| --- | --- | --- |
| ≤ 100 | ≤ 100 | CC[C@@]1(c2cccc(-c3cncn3C)c2)C2=C(CC(C)(C)NC2=O)Nc2n[nH]c(C(F)(F)F)c21 |
| ≤ 100 | ≤ 100 | CC[C@@]1(c2cccc(S(=O)(=O)C3CC3)c2)C2=C(CC(C)(C)CC2=O)Nc2n[nH]c(C(F)(F)F)c21 |
| ≤ 100 | ≤ 100 | CC[C@]1(c2cccc(OC(C)C)c2)C2=C(CC(C)(C)CC2=O)Nc2n[nH]c(C(F)(F)F)c21 |
| > 100 | > 100 | CC[C@@]1(c2cccc(-c3cc(C)ncc3C)c2)C2=C(CC(C)(C)CC2=O)Nc2n[nH]c(C(F)(F)F)c21 |
| > 100 | > 1000 | CCC1(c2cccc(N3CC4CCC(C4)C3)c2)C2=C(CC(C)(C)CC2=O)Nc2n[nH]cc21 (configuration not stated) |
| ≤ 100 | ≤ 100 | CC[C@@]1(c2cccc(C(F)(F)F)c2)C2=C(Nc3n[nH]cc31)[C@H](F)C(C)(C)CC2=O |
